Laboratory results reported in patent US9265748B2, “Anhydrous and hemihydrate crystalline forms of an (R)-baclofen prodrug, methods of synthesis and methods of use” (XenoPort, Inc., priority 2011, dated 2016).
Values belong to the molecule of their own block, whether it stands above or below them.

How the values were obtained:
[1] = tested on: retching and vomiting induced by morphine; details: Suzuki et al.; cited from earlier work
[2] = tested on: emesis induced by nicotine and motion; details: animal models (Chan et al.); cited from earlier work
[3] = tested on: allodynia and hyperalgesia; details: doses lower than those required to produce sedation and impairment of motor activity; cited from earlier work
[4] = tested on: musculoskeletal pain; details: in vivo; cited from earlier work
[5] = tested on: neuropathic pain; details: intrathecal; spinal-cord injury and multiple sclerosis, painful extremity paresthesias, sympathetically maintained pain; cited from earlier work
[6] = Dynamic vapor sorption (hygroscopicity, water content); format: physicochemical; details: for water content at 50% relative humidity / water content at 95% relative humidity: dynamic vapor sorption
Source text: In certain embodiments, crystalline (3R)-4-{[(1S)-2-methyl-1-(2-methylpropanoyloxyl)propoxy]carbonylamino}-3-(4-chlorophenyl)butanoic acid hemihydrate is hygroscopic. […] In certain embodiments, crystalline (3R)-4-{[(1S)-2-methyl-1-(2-methylpropanoyloxyl)propoxy]carbonylamino}-3-(4-chlorophenyl)butanoic acid hemihydrate comprises from about 2 wt %-about 3 wt % water. In certain embodiments, crystalline (3R)-4-{[(1S)-2-methyl-1-(2-methylpropanoyloxyl)propoxy]carbonylamino}-3-(4-chlorophenyl)butanoic acid hemihydrate contains about 2.15 wt % water at 50% relative humidity as measured by dynamic vapor sorption. In certain embodiments, crystalline (3R)-4-{[(1S)-2-methyl-1-(2-methylpropanoyloxyl)propoxy]carbonylamino}-3-(4-chlorophenyl)butanoic acid hemihydrate contains about 3 wt % water at 95% relative humidity as measured by dynamic vapor sorption.
In certain embodiments, crystalline (3R)-4-{[(1S)-2-methyl-1-(2-methylpropanoyloxyl)propoxy]carbonylamino}-3-(4-chlorophenyl)butanoic acid anhydrate contains less than about 0.05 wt % water at 50% relative humidity as measured by dynamic vapor sorption. In certain embodiments, crystalline (3R)-4-{[(1S)-2-methyl-1-(2-methylpropanoyloxyl)propoxy]carbonylamino}-3-(4-chlorophenyl)butanoic acid anhydrate contains less than about 0.1 wt % water at 95% relative humidity as measured by dynamic vapor sorption.

[7] = Thermogravimetric analysis (TG-FTIR); format: physicochemical; details: for temperature at which thermal decomposition began slowly: TG-FTIR, 10 K/min, increased strongly above 190° C.
Experimental: Thermogravimetric measurements were carried out with a Netzsch Thermo-Microbalance TG 209 coupled to a Bruker FTIR Spectrometer Vector 22. The sample was contained in sample pans with a pinhole, under a N2 atmosphere. The heating rate was set at 10 K/min. […]

[8] = tested on: TLESRs; details: humans; cited from earlier work
[9] = tested on: substance addiction; details: clinical trials: cocaine addiction, methamphetamine dependence, opioid dependence, alcohol craving and intake, nicotine use, drug addiction generally; cited from earlier work
[10] = dosed either orally or directly into the colon of a mammal; cited from earlier work
[11] = tested on: reflux episodes; details: clinical trials (Castell et al.); cited from earlier work
[12] = Solubility in crystallization solvents; format: physicochemical
Source text: As used herein, the terms solution and suspension are used interchangeably and are meant to include embodiments in which a compound is in a solvent or solvent mixture regardless of solubility. […] In general, solvent combinations in which a compound is soluble within a first temperature range, and poorly soluble within a second temperature range, can be used in the crystallization methods disclosed herein. Mixtures of a “good” solvent and an “anti-solvent” can also be used with temperature dependent solubilization, i.e., dissolving at elevated temperature and crystallizing at room temperature. Examples of suitable “good” solvents, i.e., solvents in which (3R)-4-{[(1S)-2-methyl-1-(2-methylpropanoyloxyl)propoxy]carbonylamino}-3-(4-chlorophenyl)butanoic acid is soluble, include methanol, ethanol, isopropanol, acetone, methyl isobutyl ketone, tetrahydrofuran, 2-methyl tetrahydrofuran, 1,4-dioxane, 1,2-ethandiol, 1,2-propanediol, 2-methoxyethanol, 2-ethoxyethanol, and a mixture of any of the foregoing.

Molecule: NCC(CC(=O)O)c1ccc(Cl)cc1 (racemic) [baclofen, (±)-4-amino-3-(4-chlorophenyl)butanoic acid]
effect on retching and vomiting induced by morphine [1]: suppress the retching and vomiting
effect on emesis induced by nicotine and motion [2]: antagonize emesis
effect on allodynia and hyperalgesia [3]: inhibits allodynia and hyperalgesia
efficacy in treating migraine, tension-type headaches, low-back pain and radiculopathy [4]: effective
efficacy in treating neuropathic pain [5]: effective

hygroscopicity [6]: not hygroscopic
water content at 50% relative humidity [6]: less than 0.05 wt %
water content at 95% relative humidity [6]: less than 0.1 wt %
temperature at which thermal decomposition began slowly [7]: about 170 °C
weight loss up to 180° C. ([7]; scan rate 10 K/min, N2 atmosphere): very little weight loss
Molecule: CC(C)C(=O)O[C@@H](OC(=O)NC[C@H](CC(=O)O)c1ccc(Cl)cc1)C(C)C [(3R)-4-{[(1S)-2-methyl-1-(2-methylpropanoyloxyl)propoxy]carbonylamino}-3-(4-chlorophenyl)butanoic acid anhydrate]

Molecule: NC[C@H](CC(=O)O)c1ccc(Cl)cc1 [(R)-baclofen, (R)-4-amino-3-(4-chlorophenyl)butanoic acid]
effect on TLESRs [8]: reduce TLESRs
efficacy in treating addiction [9]: effective

solubility in "good" solvents ([12]; methanol, ethanol, isopropanol, acetone, methyl isobutyl ketone, tetrahydrofuran, 2-methyl tetrahydrofuran, 1,4-dioxane, 1,2-ethandiol, 1,2-propanediol, 2-methoxyethanol, 2-ethoxyethanol): soluble
solubility in "anti-solvents" ([12]; water, diethyl ether, diisopropyl ether, methyl t-butyl ether, toluene, chlorobenzene, alkanes, cyclohexane, methylcyclohexane): poor solubility
Molecule: CC(C)C(=O)O[C@@H](OC(=O)NC[C@H](CC(=O)O)c1ccc(Cl)cc1)C(C)C [Compound 1, (3R)-4-{[(1S)-2-methyl-1-(2-methylpropanoyloxyl)propoxy]carbonylamino}-3-(4-chlorophenyl)butanoic acid]
bioavailability as R-baclofen [10]: high bioavailability
effect on reflux episodes [11]: reduce reflux episodes

hygroscopicity [6]: hygroscopic
water content at 50% relative humidity [6]: about 2.15 wt %
water content at 95% relative humidity [6]: about 3 wt %
hygroscopicity above about 60% relative humidity ([6]; above about 60% relative humidity): slightly hygroscopic
temperature at which thermal decomposition began slowly [7]: about 170 °C
weight loss up to 170° C. ([7]; scan rate 10 K/min, N2 atmosphere, loss predominantly between 80° C. and 130° C., attributable to water): about 2.1%
Molecule: (3R)-4-{[(1S)-2-methyl-1-(2-methylpropanoyloxyl)propoxy]carbonylamino}-3-(4-chlorophenyl)butanoic acid hemihydrate
